27 compounds from patent US20250388541A1, “HETEROARYL COMPOUNDS FOR THE TREATMENT OF PAIN” (VERTEX PHARMACEUTICALS INCORPORATED, priority 2022, published 2025) can be followed below.

The target of the test is human NaV 1.8 (Homo sapiens, UniProt Q9Y5Y9). The experiment in a line: E-VIPR assay detecting and measuring NaV inhibition properties. Format: cell-based. The note with it: HEK cells expressing a truncated form of human NaV 1.8; electrical stimulation, membrane potential FRET dyes; read-out: measured IC50 value in the E-VIPR Assay. The source says: E-VIPR Assay Detecting and Measuring NaV Inhibition Properties
human NaV 1.8, sequence (Q9Y5Y9 126-399 limits assumed): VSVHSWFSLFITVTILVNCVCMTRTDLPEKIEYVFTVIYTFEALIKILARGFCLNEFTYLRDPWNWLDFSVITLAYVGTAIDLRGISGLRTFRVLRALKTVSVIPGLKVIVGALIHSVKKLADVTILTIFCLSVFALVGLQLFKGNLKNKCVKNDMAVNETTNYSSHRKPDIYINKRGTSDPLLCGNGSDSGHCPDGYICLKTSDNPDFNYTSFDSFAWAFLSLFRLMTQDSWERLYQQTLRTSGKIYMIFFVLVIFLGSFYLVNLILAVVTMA
human NaV 1.8, sequence (Q9Y5Y9 660-890 limits assumed): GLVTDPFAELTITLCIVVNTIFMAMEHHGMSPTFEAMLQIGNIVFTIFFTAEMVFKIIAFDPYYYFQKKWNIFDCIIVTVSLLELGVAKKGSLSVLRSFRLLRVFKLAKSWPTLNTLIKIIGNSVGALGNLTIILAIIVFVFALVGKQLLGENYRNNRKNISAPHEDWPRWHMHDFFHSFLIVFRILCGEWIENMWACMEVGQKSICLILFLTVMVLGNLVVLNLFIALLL
human NaV 1.8, sequence (Q9Y5Y9 1148-1722 limits assumed): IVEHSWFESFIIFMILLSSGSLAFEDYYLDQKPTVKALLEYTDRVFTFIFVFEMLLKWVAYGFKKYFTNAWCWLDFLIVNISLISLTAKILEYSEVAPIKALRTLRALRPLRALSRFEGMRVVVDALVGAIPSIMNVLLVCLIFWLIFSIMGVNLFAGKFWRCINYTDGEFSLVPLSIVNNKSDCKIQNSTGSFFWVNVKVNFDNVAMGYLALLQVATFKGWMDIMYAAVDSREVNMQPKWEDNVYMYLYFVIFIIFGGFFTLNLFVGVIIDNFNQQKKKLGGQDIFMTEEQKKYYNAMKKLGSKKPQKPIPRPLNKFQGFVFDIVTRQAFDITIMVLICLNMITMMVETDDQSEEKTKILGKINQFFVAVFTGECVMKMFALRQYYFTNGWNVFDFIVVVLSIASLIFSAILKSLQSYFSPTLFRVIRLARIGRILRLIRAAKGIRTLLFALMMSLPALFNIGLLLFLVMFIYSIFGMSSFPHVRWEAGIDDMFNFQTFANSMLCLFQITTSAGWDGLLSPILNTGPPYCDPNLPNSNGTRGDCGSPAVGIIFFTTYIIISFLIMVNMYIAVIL
Sodium ion channels are voltage-dependent proteins that can be activated by inducing membrane voltage changes by applying electric fields. […] The instrument comprises a microtiter plate handler, an optical system for exciting the coumarin dye while simultaneously recording the coumarin and oxonol emissions, a waveform generator, a current- or voltage-controlled amplifier, and parallel electrode pairs that are inserted into assay plate wells. Under integrated computer control, this instrument passes user-programmed electrical stimulus protocols to cells within the wells of the microtiter plate.
16-20 hours prior to running the assay on E-VIPR, HEK cells expressing a truncated form of human NaV 1.8 with full channel activity were seeded into microtiter 384-well plates, pre-coated with matrigel, at a density of 25,000 cells per well. 2.5-5% KIR2.1 BacMam virus was added to the final cell suspension before seeding into cell plates. […] Cells were expanded in 5-layer CellSTACK culture chambers or cell culture flasks with vented caps, with 90-95% humidity and 5% CO2.
• Bath 1 Buffer containing 0.5% 3-cyclodextrin (made fresh prior to each use, Sigma #C4767), […] CC2-DMPE and 2 μM DiSBAC6(3). The solution was made by adding 10% Pluronic F127 stock equal to combined volumes of CC2-DMPE and DiSBAC6(3).
The compound plate was backfilled with 45 μL per well of Compound Loading Buffer resulting in a 240-fold dilution of compound following a 1:1 transfer of compound into the cell plate (see Step 6). […] This assay dilution protocol was adjusted to enable a higher dose range to be tested in the presence of HS or if the final assay volume was altered. • 2) Hexyl Dye Solution was prepared. • 3) Cell plates were prepared. On the day of the assay, the media was aspirated, and the cells were washed three times with 80 μL of Bath-1 buffer, maintaining 25 μL residual volume in each well. • 4) 25 μL per well of Hexyl Dye Solution was dispensed into the cell plates. The cells were incubated for 20 minutes at room temperature or ambient conditions in darkness. • 5) 45 μL per well of Compound Loading Buffer was dispensed into compound plates. • 6) The cell plates were washed three times with 80 μL per well of Bath-1 Buffer, leaving 25 μL of residual volume. Then 25 µL per well from compound plate was transferred to each cell plate. The mixture was incubated for 30 minutes at room temperature/ambient conditions. • 7) The cell plate containing compound was read on E-VIPR using the current-controlled amplifier to deliver stimulation wave pulses using a symmetrical biphasic waveform. […] A pre-stimulus recording was performed for each well for 0.5 seconds to obtain the un-stimulated intensities baseline. The stimulatory waveform was followed by 0.5 seconds of post-stimulation recording to examine the relaxation to the resting state. All E-VIPR responses were measured at 200 Hz acquisition rate.
The response as a function of time was reported as the ratios obtained using the following formula: […]
The data were normalized by calculating the initial (Ri) and final (Rf) ratios. These were the average ratio values during part or all of the pre-stimulation period and during sample points during the stimulation period. The fluorescence ratio (Rf/Ri) was then calculated and reported as a function of time.
Control responses were obtained by performing assays in the presence of the positive control, and in the absence of pharmacological agents (DMSO vehicle negative control). Responses to the negative (N) and positive (P) controls were calculated as above. The compound antagonist % activity A was then defined as:
[formula] • where X is the maximum amplitude of the ratio response or number of action potential peaks, at the beginning of the pulse train in the presence of test compound.
Turning to `Cc1cc(=O)cc(-c2c(C)cc(C(C)(C)C)cc2C)[nH]1` [Compound 3, 2-(4-tert-butyl-2,6-dimethyl-phenyl)-6-methyl-1H-pyridin-4-one], the IC50 is 500 to 2000 nM.

On to `Cc1cc(=O)cc(-c2ccc(C(C)C)cc2C(C)C)[nH]1` [Compound 43, 2-(2,4-diisopropylphenyl)-6-methyl-1H-pyridin-4-one], for which the IC50 lay within 2000 to 5000 nM.

Turning to `Cc1cc(=O)c(C)c(-c2ccc(C(C)(C)C)cc2C)[nH]1` [Compound 75, 2-(4-tert-butyl-2-methyl-phenyl)-3,6-dimethyl-1H-pyridin-4-one], the IC50 is 500 to 2000 nM.

For `Cc1cc(=O)c(C)c(-c2ccc(C(C)(C)C)cc2)[nH]1` [Compound 77, 2-(4-tert-butylphenyl)-3,6-dimethyl-1H-pyridin-4-one], the IC50 fell in the range of 500 to 2000 nM.

With `Cc1cc(=O)c(C)c(-c2ccc(C3(C(F)(F)F)CC3)cc2)[nH]1` [Compound 78, 3,6-dimethyl-2-[4-[1-(trifluoromethyl)cyclopropyl]phenyl]-1H-pyridin-4-one], the IC50 is 2000 to 5000 nM.

With `Cc1[nH]c(-c2ccc(C(C)(C)C)cc2)cc(=O)c1C` [Compound 79, 6-(4-tert-butylphenyl)-2,3-dimethyl-1H-pyridin-4-one], the IC50 is 500 to 2000 nM.

Consider `Cc1[nH]c(-c2ccc(C3(C(F)(F)F)CC3)cc2)cc(=O)c1C` [Compound 82, 2,3-dimethyl-6-[4-[1-(trifluoromethyl)cyclopropyl]phenyl]-1H-pyridin-4-one], for which the IC50 was 500 to 2000 nM.

Regarding `Cc1nc(-c2ccc(C(C)(C)C)cc2C)cc(=O)[nH]1` [Compound 83, 4-(4-tert-butyl-2-methyl-phenyl)-2-methyl-1H-pyrimidin-6-one], the IC50 is 2000 to 5000 nM.

In the case of `COc1nc2ccccc2cc1-c1cc(=O)c(C)c(C)[nH]1` [Compound 95, 6-(2-methoxy-3-quinolyl)-2,3-dimethyl-1H-pyridin-4-one], the IC50 is 2000 to 5000 nM.

Take `Cc1cc(=O)cc(-c2ccc(C3(C(F)(F)F)CC3)cc2C)[nH]1` [Compound 96, 2-methyl-6-[2-methyl-4-[1-(trifluoromethyl)cyclopropyl]phenyl]-1H-pyridin-4-one]: the IC50 fell in the range of 500 to 2000 nM.

Take `CCOC(=O)c1c(-c2c(C)cc(C(C)(C)C)cc2C)[nH]c(C)c(C)c1=O` [Compound 98, ethyl 2-(4-tert-butyl-2,6-dimethyl-phenyl)-5,6-dimethyl-4-oxo-1H-pyridine-3-carboxylate]: the IC50 was in the range of 500 to 2000 nM.

For `Cc1cc(C(C)(C)C)ccc1-c1cc(=O)cc(N(C)C)[nH]1` [Compound 100, 2-(4-tert-butyl-2-methyl-phenyl)-6-(dimethylamino)-1H-pyridin-4-one], the IC50 is 500 to 2000 nM.

For `COc1cc(=O)cc(-c2ccc(C(C)(C)C)cc2C)[nH]1` [Compound 104, 2-(4-tert-butyl-2-methyl-phenyl)-6-methoxy-1H-pyridin-4-one], the IC50 lay within 2000 to 5000 nM.

For the compound `CCOc1c(-c2ccc(C(C)(C)C)cc2C)[nH]c(C)cc1=O` [Compound 106, 2-(4-tert-butyl-2-methyl-phenyl)-3-ethoxy-6-methyl-1H-pyridin-4-one], the IC50 was in the range of 500 to 2000 nM.

As to `COc1c(-c2ccc(C(C)(C)C)cc2C)[nH]c(C)cc1=O` [Compound 107, 2-(4-tert-butyl-2-methyl-phenyl)-3-methoxy-6-methyl-1H-pyridin-4-one], the half-inhibitory concentration (IC50) lay in the range of 500 to 2000 nM.

`Cc1cc(C(C)(C)C)c(Cl)cc1-c1cc(=O)c(S(=N)(=O)C(C)C)c(C)[nH]1` (stereo not drawn) [Compound 145, 6-(4-tert-butyl-5-chloro-2-methyl-phenyl)-3-(isopropylsulfonimidoyl)-2-methyl-1H-pyridin-4-one]: the concentration for half-maximal inhibition (IC50) is 500 to 2000 nM.

With `Cc1cc(C(C)(C)C)ccc1-c1cc(=O)c(CN)c(C)[nH]1` [Compound 154, 3-(aminomethyl)-6-(4-tert-butyl-2-methyl-phenyl)-2-methyl-1H-pyridin-4-one], the IC50 was in the range of 500 to 2000 nM.

Turning to `Cc1cc(C(C)(C)C)ccc1-c1cc(=O)c(NC(=O)[C@@H](C)N)c(C)[nH]1` [Compound 155, (2R)-2-amino-N-[6-(4-tert-butyl-2-methyl-phenyl)-2-methyl-4-oxo-1H-pyridin-3-yl]propanamide], the IC50 fell in the range of 500 to 2000 nM.

Consider `Cc1cc(C(C)(C)C)ccc1-c1cc(=O)c(NC(=O)[C@H](C)N)c(C)[nH]1` [Compound 156, (2S)-2-amino-N-[6-(4-tert-butyl-2-methyl-phenyl)-2-methyl-4-oxo-1H-pyridin-3-yl]propanamide], for which the IC50 was in the range of 2000 to 5000 nM.

With `CC(=O)Nc1c(C)[nH]c(-c2ccc(C(C)(C)C)cc2C)cc1=O` [Compound 157, N-[6-(4-tert-butyl-2-methyl-phenyl)-2-methyl-4-oxo-1H-pyridin-3-yl]acetamide], the IC50 was in the range of 500 to 2000 nM.

Consider `Cc1cc(C(C)(C)C)ccc1-c1cc(=O)c(-c2cccnc2C#N)c(C)[nH]1` [Compound 172, 3-[6-(4-tert-butyl-2-methyl-phenyl)-2-methyl-4-oxo-1H-pyridin-3-yl]pyridine-2-carbonitrile], for which the IC50 was in the range of 500 to 2000 nM.

As for `Cc1cc(C(C)(C)C)ccc1-c1cc(=O)c(C2=CCN(C)CC2)c(C)[nH]1` [Compound 174, 6-(4-tert-butyl-2-methyl-phenyl)-2-methyl-3-(1-methyl-3,6-dihydro-2H-pyridin-4-yl)-1H-pyridin-4-one], the IC50 lay in the range of 2000 to 5000 nM.

For the compound `Cc1cc(C(C)(C)C)c(Cl)cc1-c1cc(=O)c(-c2cn(C)c(C)n2)c(C)[nH]1` [Compound 197, 6-(4-tert-butyl-5-chloro-2-methyl-phenyl)-3-(1,2-dimethylimidazol-4-yl)-2-methyl-1H-pyridin-4-one], the IC50 lay within 500 to 2000 nM.

In the case of `COCn1ccnc1-c1c(C)[nH]c(-c2cc(Cl)c(C(C)(C)C)cc2C)cc1=O` [Compound 201, 6-(4-tert-butyl-5-chloro-2-methyl-phenyl)-3-[1-(methoxymethyl)imidazol-2-yl]-2-methyl-1H-pyridin-4-one], the IC50 is 2000 to 5000 nM.

As for `Cc1cc(C(C)(C)C)ccc1-c1cc(=O)c(C2CCN(C)CC2)c(C)[nH]1` [Compound 204, 6-(4-tert-butyl-2-methyl-phenyl)-2-methyl-3-(1-methyl-4-piperidyl)-1H-pyridin-4-one], the 50% inhibitory concentration (IC50) was 500 to 2000 nM.

Consider `Cc1cc(C(C)(C)C)ccc1-c1cc(=O)c(C2=CCNCC2)c(C)[nH]1` [Compound 205, 6-(4-tert-butyl-2-methyl-phenyl)-2-methyl-3-(1,2,3,6-tetrahydropyridin-4-yl)-1H-pyridin-4-one], for which the IC50 was in the range of 500 to 2000 nM.

As for `Cc1cc(C(C)(C)C)c(Cl)cc1-c1cc(=O)c(-c2ncc[nH]2)c(C)[nH]1` [Compound 212, 6-(4-tert-butyl-5-chloro-2-methyl-phenyl)-3-(1H-imidazol-2-yl)-2-methyl-1H-pyridin-4-one], the IC50 was 500 to 2000 nM.

The IC50 is the concentration at which inhibition is half-maximal.
